Measurements: US20260256792A1, “TREATMENT OF CHRONIC SPONTANEOUS URTICARIA BY ADMINISTERING (R)-2-[3-[4-AMINO-3-(2-FLUORO-4-PHENOXY-PHENYL)PYRAZOLO[3,4-D]PYRIMIDIN-1-YL]PIPERIDINE-1-CARBONYL]-4-METHYL-4-[4-(OXETAN-3-YL)PIPERAZIN-1-YL]PENT-2-ENENITRILE” (priority 2023, published 2026)

Tested on: moderate-to-severe chronic spontaneous urticaria (CSU)
Assay: Phase 2 CSU study: urticaria activity score over 7 days (UAS7)
Assay type: in vivo, human
Parameters: key to UAS7 Median / UAS7 Change from baseline Median / UAS7 change from baseline, Q1 / UAS7 change from baseline, Q3 / UAS7 change from baseline, Max / UAS7 Change from baseline LS Mean (SE): UAS7 points; daily UAS score ranges 0–6 points/day, over 7 days
Text: The study comprises a 12 week, randomized, double-blind, placebo-controlled, multi-center, dose-ranging efficacy and safety phase, followed by a 40 week open label extension (OLE) phase (see FIG. 1). The study consists of three phases and an optional OLE phase. […] Clinically, CSU is characterized by the spontaneous and recurrent appearance of pruritic hives. The proposed primary endpoints were the UAS7 at Week 12 in EU and EU reference countries and the ISS7 in the US. Regardless of where a participant was from, all assessments were the same. The UAS7 score is a composite score containing both the HSS7 and the ISS7. This allowed a global assessment of the two key components of urticaria: hives and itch. […] The UAS is a validated PRO measure. […] The daily UAS scores range from 0 to 6 point/day. […] Patients were to complete the UAS using the e-diary. […] The following secondary endpoints were to be analyzed using the same approach as for the primary endpoint: • Change from baseline in UAS7 at Week 4 • Change from baseline in UAS7 at Week 12 (for US and US reference countries) • Change from baseline in ISS7 at Week 12 (except US and US reference countries) • Change from baseline in HSS7 at Week 12 The following responder secondary endpoints were to be analyzed using the Cochran-Mantel-Haenszel test adjusted by region: • Proportion of participants with UAS7<6 at Week 12 • Proportion of participants with UAS7=0 at Week 12 Participants who received selected prohibited medications and/or rescue medications were to be considered as non-responders for time points after the medication usage. For other participants, all available data including those collected during the off-treatment period were to be used to determine the responder/non-responder status. Missing data were to be considered as non-responders.

[1] = Week 8, 400 mg BID, omalizumab-naive participants
[2] = Week 8, 400 mg QPM, ITT population
[3] = Week 8, 400 mg QPM, Omalizumab-Naïve
[4] = Week 8, 400 mg QPM, Prior Omalizumab Use
[5] = Week 8, 400 mg QPM, omalizumab-naive participants
[6] = Week 8, 400 mg TID, ITT population
[7] = Week 8, 400 mg TID, Omalizumab-Naïve
[8] = Week 8, 400 mg TID, Prior Omalizumab Use
[9] = Week 8, 400 mg TID, omalizumab-naive participants
[10] = Week 9, 400 mg BID, ITT population
[11] = Week 9, 400 mg BID, Omalizumab-Naïve
[12] = Week 9, 400 mg BID, Prior Omalizumab Use
[13] = Week 9, 400 mg BID, omalizumab-naive participants
[14] = Week 9, 400 mg QPM, ITT population
[15] = Week 9, 400 mg QPM, Omalizumab-Naïve

**Q.** Which results are given for CC(C)(C=C(C#N)C(=O)N1CCC[C@@H](n2nc(-c3ccc(Oc4ccccc4)cc3F)c3c(N)ncnc32)C1)N1CCN(C2COC2)CC1 [rilzabrutinib, (R)-2-[3-[4-amino-3-(2-fluoro-4-phenoxy-phenyl)pyrazolo[3,4-d]pyrimidin-1-yl]piperidine-1-carbonyl]-4-methyl-4-[4-(oxetan-3-yl)piperazin-1-yl]pent-2-enenitrile]?
**A.** RRD (%) for rilzabrutinib vs. placebo, UAS7 reduction of 10 points or more [1]: 24.0 %; Responder, UAS7 reduction from baseline of 10 points or more [1]: 21 (60.0) n (%); Non-responder, UAS7 reduction from baseline of 10 points or more [2]: 21 (55.3) n (%); OR for rilzabrutinib vs. placebo, UAS7 reduction of 10 points or more [2]: 1.257; RRD (%) for rilzabrutinib vs. placebo, UAS7 reduction of 10 points or more [2]: 5.3 %; Responder, UAS7 reduction from baseline of 10 points or more [2]: 17 (44.7) n (%); UAS7 Change from baseline Mean (SD) [3]: −10.63 (9.70); UAS7 Change from baseline Median [3]: −10.80; UAS7 Median [3]: 21.00; UAS7 Percent change from baseline Mean (SD) [3]: −33.68 (30.26) %; UAS7 Percent change from baseline Median [3]: −31.82%; UAS7 Change from baseline Mean (SD) [4]: −25.00 (NC); UAS7 Change from baseline Median [4]: −25.00; UAS7 Mean (SD) [4]: 16.00 (NC); UAS7 Median [4]: 16.00; UAS7 Percent change from baseline Mean (SD) [4]: −60.98 (NC) %; UAS7 Percent change from baseline Median [4]: −60.98%; Non-responder, UAS7 reduction from baseline of 10 points or more [5]: 21 (56.8) n (%); OR for rilzabrutinib vs. placebo, UAS7 reduction of 10 points or more [5]: 1.331; RRD (%) for rilzabrutinib vs. placebo, UAS7 reduction of 10 points or more [5]: 6.6 %; Responder, UAS7 reduction from baseline of 10 points or more [5]: 16 (43.2) n (%); Non-responder, UAS7 reduction from baseline of 10 points or more [6]: 14 (34.1) n (%); RRD (%) for rilzabrutinib vs. placebo, UAS7 reduction of 10 points or more [6]: 23.2 %; Responder, UAS7 reduction from baseline of 10 points or more [6]: 27 (65.9) n (%); UAS7 Change from baseline Mean (SD) [7]: −16.89 (10.13); UAS7 Change from baseline Median [7]: −15.17; UAS7 Mean (SD) [7]: 13.36 (9.81); UAS7 Median [7]: 14.00; UAS7 Percent change from baseline Mean (SD) [7]: −55.66 (31.25) %; UAS7 Percent change from baseline Median [7]: −55.83%; UAS7 Change from baseline Median [8]: −25.58; UAS7 Mean (SD) [8]: 7.50 (11.26); UAS7 Median [8]: 3.00; UAS7 Percent change from baseline Mean (SD) [8]: −78.96 (25.66) %; UAS7 Percent change from baseline Median [8]: −84.90%; Non-responder, UAS7 reduction from baseline of 10 points or more [9]: 13 (37.1) n (%); OR for rilzabrutinib vs. placebo, UAS7 reduction of 10 points or more [9]: 2.815; RRD (%) for rilzabrutinib vs. placebo, UAS7 reduction of 10 points or more [9]: 25.7 %; Responder, UAS7 reduction from baseline of 10 points or more [9]: 22 (62.9) n (%); Non-responder, UAS7 reduction from baseline of 10 points or more [10]: 20 (48.8) n (%); OR for rilzabrutinib vs. placebo, UAS7 reduction of 10 points or more [10]: 1.471; RRD (%) for rilzabrutinib vs. placebo, UAS7 reduction of 10 points or more [10]: 10.6 %; Responder, UAS7 reduction from baseline of 10 points or more [10]: 21 (51.2) n (%); UAS7 Change from baseline Median [11]: −17.00; UAS7 Mean (SD) [11]: 14.64 (14.43); UAS7 Percent change from baseline Mean (SD) [11]: −53.27 (40.38) %; UAS7 Percent change from baseline Median [11]: −59.77%; UAS7 Change from baseline Mean (SD) [12]: −20.83 (19.15); UAS7 Change from baseline Median [12]: −27.00; UAS7 Mean (SD) [12]: 11.17 (15.78); UAS7 Median [12]: 1.00; UAS7 Percent change from baseline Mean (SD) [12]: −60.63 (52.86) %; UAS7 Percent change from baseline Median [12]: −97.62%; Non-responder, UAS7 reduction from baseline of 10 points or more [13]: 17 (48.6) n (%); OR for rilzabrutinib vs. placebo, UAS7 reduction of 10 points or more [13]: 1.764; RRD (%) for rilzabrutinib vs. placebo, UAS7 reduction of 10 points or more [13]: 16.0 %; Responder, UAS7 reduction from baseline of 10 points or more [13]: 18 (51.4) n (%); Non-responder, UAS7 reduction from baseline of 10 points or more [14]: 20 (52.6) n (%); OR for rilzabrutinib vs. placebo, UAS7 reduction of 10 points or more [14]: 1.452; RRD (%) for rilzabrutinib vs. placebo, UAS7 reduction of 10 points or more [14]: 8.5 %; Responder, UAS7 reduction from baseline of 10 points or more [14]: 18 (47.4) n (%); UAS7 Change from baseline Median [15]: −11.00; UAS7 Mean (SD) [15]: 20.25 (10.25); UAS7 Median [15]: 19.33; UAS7 Percent change from baseline Mean (SD) [15]: −36.26 (27.83) %; UAS7 Percent change from baseline Median [15]: −32.58%
